Test results reported in patent US4977146A, “2,5-diaryl tetrahydrofurans and analogs thereof as PAF antagonists” (Merck & Co., Inc., priority 1990, dated 1990).

What follows are compounds tested against T1, PAF specific receptor binding site on human platelet membranes (Homo sapiens, UniProt P25105) (assay: inhibition of the binding of [3H] N-methylcarbamoyl-PAF to human platelet membranes). Conditions: trans configuration, read-out: % inhibitor* (% inhibition of the binding of [3H] N-methylcarbamoyl-PAF to human platelet membranes).
T1 construct: 100 μg of the platelet plasma membrane suspension; from tissue; host or cells: human platelets (plasma membranes)
Description: The ability of a compound of formula (I) to inhibit the PAF binding to its specific receptor binding site on rabbit or human platelet or PMN plasma membranes was measured by a recently developed assay.
The inhibition of ^3 [H] PAF or ^3 [H]N-methylcarbamoyl-PAF binding to the human or rabbit platelet or PMN plasma membrane by a PAF antagonist of formula (I) was determined by a method employing isotopic labeling and filtration techniques. Generally, a series of Tris-buffered solutions of the selected antagonist at predetermined concentrations were prepared. […] Two control samples, one of which (C1) contains all the ingredients described above except the antagonist and the other (C2) contains C1 plus a 1000-fold excess of unlabeled PAF, were also prepared and incubated simultaneously with the test samples. After the incubation was completed, the contents of each test tube were filtered in vacuo through a Whatman GF/C fiberglass filter and the residue washed rapidly several times with a total of 20 ml cold (0°-5° C.) Tris-buffer solution. Each washed residue was then suspended in 10 ml scintillation solution (Aquasol 2, New England Nuclear, Connecticut) and the radioactivity was counted in a Packard Tri-Carb 460CD Liguid Scintillation System.

T1 sequence (P25105 whole entry): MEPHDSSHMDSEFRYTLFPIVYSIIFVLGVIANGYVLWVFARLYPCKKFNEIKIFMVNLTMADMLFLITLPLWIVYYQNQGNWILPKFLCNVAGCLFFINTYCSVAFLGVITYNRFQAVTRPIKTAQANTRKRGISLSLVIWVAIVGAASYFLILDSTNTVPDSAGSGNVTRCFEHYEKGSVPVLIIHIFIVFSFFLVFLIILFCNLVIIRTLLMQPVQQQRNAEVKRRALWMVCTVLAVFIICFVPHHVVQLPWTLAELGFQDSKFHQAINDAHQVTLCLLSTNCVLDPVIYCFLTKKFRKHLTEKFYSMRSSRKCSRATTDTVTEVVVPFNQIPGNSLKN

SMILES	inhibition [%]
CCCOc1c(OCCCN(C)C)cc([C@@H]2CC[C@@H](c3cc(OC)c(OC)c(OC)c3)O2)cc1S(=O)(=O)CC(C)=O (relative stereo) [2-[3-(2-Oxopropylsulfonyl)4-n-propoxy-5-{3-(N,N-dimethylamino)-n-propoxy}phenyl]-5-(3,4,5-trimethoxyphenyl)tetrahydrofuran]	17
CCCOc1c(OCC(C)=O)cc([C@H]2CC[C@H](c3cc(OC)c(OC)c(OC)c3)O2)cc1S(=O)(=O)CCO (relative stereo) [SO2 CH2 CH2OH / CH2 CH2 CH3 / CH2 COCH3, trans-2-[3-(2-Hydroxyethylsulfonyl)-4-n-propoxy-5-(2-oxo-propoxy)phenyl]-5-(3,4,5-trimethoxy-phenyl)tetrahydrofuran]	33
CCCOc1c(OCC(C)=O)cc([C@H]2CC[C@H](c3cc(OC)c(OC)c(OC)c3)O2)cc1S(=O)(=O)CC(C)=O (relative stereo) [SO2 CH2 COCH3 / CH2 CH2 CH3 / CH2 COCH3, trans-2-[3-(2-Oxopropyl-sulfonyl)-4-n-propoxy-5-(2-oxopropoxy)phenyl]-5-(3,4,5-trimethoxyphenyl)tetrahydrofuran]	65
CCCOc1cc([C@H]2CC[C@H](c3cc(OC)c(OC)c(OC)c3)O2)cc(S(=O)(=O)CCN)c1OCCC (relative stereo) [trans-2-[3-(2-Aminoethylsulfonyl)-4,5-dipropoxyphenyl]-5-(3,4,5-trimethoxyphenyl)tetrahydrofuran]	27
CCCOc1c(OCCCO)cc([C@H]2CC[C@H](c3cc(OC)c(OC)c(OC)c3)O2)cc1S(=O)(=O)CC(C)N (relative stereo) [trans-2-[3-(2-Aminopropylsulfonyl)-4-n-propoxy-5-(3-hydroxypropoxy)phenyl]5-(3,4,5-trimethoxyphenyl)tetrahydrofuran]	18
CCCOc1c(OCC(C)=O)cc([C@@H]2CC[C@@H](c3cc(OC)c(OC)c(OC)c3)O2)cc1S(=O)(=O)CCN(C)C (relative stereo) [trans-2-[3-(2-N,N-Dimethylaminoethyl-sulfonyl)-4-n-propoxy-5-(2-oxo-propoxyphenyl]-5-(3,4,5-trimethoxyphenyl)tetrahydrofuran]	31
CCCOc1cc([C@@H]2CC[C@@H](c3cc(OC)c(OC)c(OC)c3)O2)cc(S(=O)(=O)CCN(C)C)c1OCCC (relative stereo) [trans-2-[3-(2-N,N-Dimethylaminoethylsulfonyl)-4,5-di-n-propoxyphenyl]-5-(3,4,5-trimethoxyphenyl)tetrayhydrofuran]	58
CCCOc1c(OCC(C)O)cc([C@@H]2CC[C@@H](c3cc(OC)c(OC)c(OC)c3)O2)cc1S(=O)(=O)CCN(C)C (relative stereo) [trans-2-[3-(2-N,N-Dimethylaminoethylsulfonyl)-4-n-propoxy-5-(2-hydroxypropoxy)phenyl]-5-(3,4,5-trimethoxyphenyl)tetrahydrofuran]	14
CCCOc1c(OCCCO)cc([C@@H]2CC[C@@H](c3cc(OC)c(OC)c(OC)c3)O2)cc1S(=O)(=O)CCN(C)C (relative stereo) [trans-2-[3-(2-N,N-Dimethylaminoethylsulfonyl)-4-n-propoxy-5-(3-hydroxypropoxy)phenyl]-5-(3,4,5-trimethoxyphenyl)tetrahydrofuran]	46

The next lines start with the values.

inhibition [%]	SMILES
23	CCCOc1c(OCCCO)cc([C@@H]2CC[C@@H](c3cc(OC)c(OC)c(OC)c3)O2)cc1S(=O)(=O)CC(C)N(C)C (relative stereo) [trans-2-[3-(2-N,N-dimethylaminopropyl-sulfonyl)-4-n-propoxy-5-(3-hydroxypropoxy)phenyl]5-(3,4,5-trimethoxyphenyl)tetrahydrofuran]
42	CCCOc1cc([C@@H]2CC[C@@H](c3cc(OC)c(OC)c(OC)c3)O2)cc(S(=O)(=O)CCNCC)c1OCCC (relative stereo) [trans-2-[3-(2-N-Ethylaminoethylsulfonyl)-4,5-dipropoxyphenyl]-5-(3,4,5-trimethoxyphenyl)tetrahydrofuran]
36	CCCOc1c(OCCCO)cc([C@@H]2CC[C@@H](c3cc(OC)c(OC)c(OC)c3)O2)cc1S(=O)(=O)CC(C)NCC (relative stereo) [trans-2-[3-(2-N-Ethylaminopropylsulfonyl)-4-propoxy-5-(3-hydroxypropoxy)phenyl]-5-(3,4,5-trimethoxyphenyl)tetrahydrofuran]
58	CCCOc1cc([C@@H]2CC[C@@H](c3cc(OC)c(OC)c(OC)c3)O2)cc(S(=O)(=O)CCNC)c1OCCC (relative stereo) [trans-2-[3-(2-N-Methylaminoethylsulfonyl)-4,5-di-n-propoxyphenyl]-5-(3,4,5-trimethoxyphenyl) tetrahydrofuran]
38	CCCOc1c(OCCCO)cc([C@@H]2CC[C@@H](c3cc(OC)c(OC)c(OC)c3)O2)cc1S(=O)(=O)CC(C)NC (relative stereo) [trans-2-[3-(2-N-Methylaminopropylsulfonyl)-4-n-propoxy-5-(3-hydroxypropoxy)phenyl]-5-(3,4,5-trimethoxyphenyl)tetrahydrofuran]
33	CCCNCCS(=O)(=O)c1cc([C@@H]2CC[C@@H](c3cc(OC)c(OC)c(OC)c3)O2)cc(OCCC)c1OCCC (relative stereo) [trans-2-[3-(2-N-Propylaminoethylsulfonyl)-4,5-dipropoxyphenyl]-5-(3,4,5-trimethoxyphenyl) tetrahydrofuran]
52	CCCOc1c(OCC(C)=O)cc([C@H]2CC[C@H](c3cc(OC)c(OC)c(OC)c3)O2)cc1S(=O)(=O)CC(C)O (relative stereo) [trans-2-[3-(2-hydroxypropylsulfonyl)-4-n-propoxy-5-(2-oxopropoxy)phenyl]-5-(3,4,5-trimethoxy-phenyl)tetrahydrofuran]
26	CCCOc1c(OCCCO)cc([C@H]2CC[C@H](c3cc(OC)c(OC)c(OC)c3)O2)cc1S(=O)(=O)CC(C)O (relative stereo) [trans-2-[3-(2-hydroxypropylsulfonyl)-4-n-propoxy-5-(3-hydroxypropoxy)phenyl]-5-(3,4,5-trimethoxyphenyl)tetrahydrofuran]
